Some test systems named below: LXFL 529 NSCLC; M14 melanoma; BT-549 breast; HOP-18 NSCLC; P388/ADR leukemia; P388 leukemia; SN12K1 renal.
Holding throughout (experiment): NCI tumour cell line growth inhibition, 48 h

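Five compound concentrations were applied to cells in 96-well plates for 48 hours; endpoints were derived by simple linear interpolation of the resulting dose-response curve. The concentration for 50% growth inhibition is given as GI50. Definition used: TGI = concentration required for complete inhibition of growth.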

Consider `CCOc1ccc(N=Nc2ccc3oc(=O)c(/C(C)=N\NC(=O)CC(=O)Nc4ccc(Cl)cc4)cc3c2)cc1`, for which the TGI in the experiment on LXFL 529 NSCLC was 27 µM.
In turn, `CCOC(=O)C1(C(=O)OCC)CSC1` yielded a TGI in the experiment on M14 melanoma of more than 100 µM.
Regarding `CCSc1nc(N2CCCCC2)c2cn[nH]c2n1`, in the experiment on BT-549 breast, the GI50 was 20.1 µM and the TGI amounted to 77.5 µM.
Take `O=C(O)/C=C/c1cnc[nH]1`: the TGI with HOP-18 NSCLC, with P388/ADR leukemia, in the experiment on P388 leukemia and in the experiment on SN12K1 renal was more than 500 µM in each case. Moreover, in the experiment on P388 leukemia, the GI50 is more than 500 µM.

The record behind these values is PubChem BioAssay (NCI).
